Source: US4937236A, “Anxiolytic N-substituted benzamides” (priority 1987, dated 1990)
Structures can show the parent of a compound that is named as a salt.

Key:
[1] = system: Cis-platinum induced emesis; assay: Cis-platinum induced emesis in the dog; assay type: in vivo
Description: (Gylys, J. A., Dora, K. M. & Buyniski J. P. Res. Comm. Chem. Pathol. Pharmacol. (1979)23: 61-68).

gastric emptying = assay: Stomach emptying (gastric emptying of glass beads) in the rat; assay type: in vivo; parameters: unit not given here
Description: (5) Stomach emptying in the rat, administering compounds by oral route. (Jacoby, H. I., and Brodie, D. A. Gastroenterol. 52, 676-684, 1967).
All of them show a good prokinetic activity in the gastric emptying of glass beads in the rat.

CuSO4-induced emesis = CuSO4-induced emesis in the dog; assay type: in vivo; conditions: for C4 SO4 - INDUCED VOMITING No EMETIC EPISODES IN THE DOG (% Inh.): 1 mg/kg i.v.
Description: (Kayashima, N., Tanaka, M., Iwasaki, M. & Hayama, T. Japan J. Pharmacol. (1978)28: 775-781).

[2] = system: Apomorphine-induced emesis; assay: Apomorphine-induced emesis in the dog; conditions: for APOMORPHINE-INDUCED VOMITING IN THE DOG % Protected animals: 1 mg/kg i.v.
[3] = biological target: T1, 5HT3 receptors located in vagal afferent fibres (Rattus norvegicus, UniProt P35563); assay: Inhibition of the Bezold-Jarisch reflex in the anaesthetized rat; assay type: in vivo; conditions: iv, read-out: BEZOLD-JARISCH REFLEX IN THE RAT (ID50; μg/kg i.v.)
T1 construct: 5HT3 receptors located in vagal afferent fibres; from tissue; host or cells: vagal afferent fibres of the anaesthetized rat (in vivo)
T1 sequence (P35563 24-483): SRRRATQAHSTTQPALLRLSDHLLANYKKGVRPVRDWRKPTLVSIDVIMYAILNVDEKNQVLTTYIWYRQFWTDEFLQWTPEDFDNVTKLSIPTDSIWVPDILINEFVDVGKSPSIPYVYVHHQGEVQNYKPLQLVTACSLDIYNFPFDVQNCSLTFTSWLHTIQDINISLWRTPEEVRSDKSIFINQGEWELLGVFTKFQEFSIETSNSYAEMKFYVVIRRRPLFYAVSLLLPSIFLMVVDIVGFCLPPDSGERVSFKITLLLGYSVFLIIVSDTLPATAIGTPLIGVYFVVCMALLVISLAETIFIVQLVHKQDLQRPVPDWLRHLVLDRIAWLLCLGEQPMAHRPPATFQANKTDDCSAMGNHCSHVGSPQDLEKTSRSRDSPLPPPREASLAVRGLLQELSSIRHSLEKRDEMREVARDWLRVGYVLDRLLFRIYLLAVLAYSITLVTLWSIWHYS
Description: (1) Stimulation by 5-HT of 5HT3 receptors located in vagal afferent fibres produces a fall in heart rate and blood pressure in the anaesthetized rat (Bezold-Jarisch reflex).

Structure (SMILES)	CISPLATIN-INDUCED VOMITING IN THE DOG (% inhibition) ([1]; 0.03 mg/kg i.v.) [%]	CISPLATIN-INDUCED VOMITING IN THE DOG (% inhibition) ([1]; 0.1 mg/kg p.o.) [%]	GASTRIC EMPTYING IN THE RAT [drawing 8] (gastric emptying; 0.01 mg/kg p.o.)	GASTRIC EMPTYING IN THE RAT [drawing 8] (gastric emptying; 1.0 mg/kg p.o.)	C4 SO4 - INDUCED VOMITING No EMETIC EPISODES IN THE DOG (% Inh.) (CuSO4-induced emesis) [%]	APOMORPHINE-INDUCED VOMITING IN THE DOG % Protected animals [2] [%]	ED50 [3] [µg/kg]	CISPLATIN-INDUCED VOMITING IN THE DOG (% inhibition) ([1]; 1 mg/kg i.v.) [%]	CISPLATIN-INDUCED VOMITING IN THE DOG (% inhibition) ([1]; 3 mg/kg p.o.) [%]	activity in CuSO4-induced vomiting in the dog (in words) (CuSO4-induced emesis)	antiemetic activity in apomorphine-induced vomiting in the dog (in words) [2]
Nc1cc(OCC2CC2)c(C(=O)NC2CN3CCC2CC3)cc1Cl (stereo not shown) [Compound 1, N-(1-azabicyclo[2.2.2]oct-3-yl)-2-cyclopropylmethoxy-4-amino-5-chlorobenzamide]	88	85	55	85	40	0	0.56	–	–	–	–
COCCOc1cc(N)c(Cl)cc1C(=O)NC1CN2CCC1CC2 (stereo not shown) [Compound 11, N-(1-azabicyclo[2.2.2]oct-3-yl)-2-methoxyethoxy-4-amino-5-chlorobenzamide]	81	0	60	68	24	0	0.42	–	–	–	–
CN1[C@@H]2CC[C@H]1C[C@H](NC(=O)c1cc(Cl)c(N)cc1OCC1CC1)C2 [Compound 16, N(8-methyl-8-azabicyclo[3.2.1]oct3β-yl)2-cyclopropylmethoxy-4-amino-5-chlorobenzamide]	53	61	32	71	45	0	2.6	–	–	–	–
COCCOc1cc(N)c(Cl)cc1C(=O)N[C@@H]1C[C@H]2CC[C@@H](C1)N2C [Compound 23, N-(8-methyl-8-azabicyclo[3.2.1]oct-3β-yl)-2-(2-methoxyethoxy)-4-amino-5-chlorobenzamide acid fumarate]	31	53	13	61	30	0	0.63	–	–	–	–
CCN(CC)CCNC(=O)c1cc(Cl)c(N)cc1OC [Metoclopramide, N-[2-(diethylamino)ethyl]-2-methoxy-4-amino-5-chlorobenzamide, reference compound]	–	–	0	42	60	100	330	69	85	decreases the number of emetic episodes	very active
COc1cc(N)c(Cl)cc1C(=O)NC1CN2CCC1CC2 (stereo not shown) [Zacopride, N-(1-azabicyclo[2.2.2]oct-3-yl)-2-methoxy-4-amino-5-chlorobenzamide, reference compound]	92	88	51	77	0	0	0.21	–	–	totally inactive	lack antiemetic activity
